How the values were obtained:
[1] = Phase 1 relative bioavailability of capsule and tablet in healthy subjects: safety; format: in vivo, human
Protocol: A Phase 1, open-label, single dose study was conducted in healthy human subjects to evaluate the relative bioavailability of two formulations of Compound I. The first formulation of Compound I (Treatment A) was in the form of a capsule comprising about 15 mg of Compound I in the form of a hemifumarate, while the second formulation of Compound I (Treatment B) was in the form of a tablet comprising about 10 mg of Compound I in the form of a malonate and pharmaceutically acceptable excipients. The primary objective of the study was to evaluate the relative bioavailability (BA) of Treatment A and Treatment B administered as a single oral dose under fasting conditions in healthy adult subjects. A secondary objective was to evaluate the safety and tolerability of single dose administration of Compound I Treatment B under fasting conditions. The endpoints of the study were AUC0-last, AUC0-24, AUC0-inf, AUC % extrap, Cmax, Tmax, Kel, t½, CL/F, and Vz/F for Treatment A and Treatment B. The endpoints also included Aetl-t2, Ae, CLr, Fet1-t2, and Fe from Treatment B in period 2. A secondary endpoint included treatment-emergent AEs (TEAEs), clinical laboratory tests, vital signs, and 12 lead electrocardiogram (ECGs).
Methodology: The study was conducted as an open-label, single-dose study. Screening of subjects occurred within 28 days prior to the first dosing. The study was conducted as a randomized, 2-period, crossover study to assess the relative BA of Treatment A and Treatment B. On Day 1 of Period 1 and of Period 2, a single oral dose of Treatment A or Treatment B were administered under fasting conditions. Blood samples for PK were collected pre-dose and through 216 hours post-dose. Urine samples for PK were collected pre-dose and through 48 hours post-dose from subjects randomized to Period 2 Treatment B (tablets). There was a washout period of at least 10 days between dosing in each period. Safety was monitored throughout the study by repeated clinical and laboratory evaluations. Discontinued subjects were not replaced. All 30 enrolled subjects completed the study and were included in the PK and safety analyses.
60 mg Compound I in the form of Treatment B (6×10 mg tablets) was administered at Hour 0 on Day 1 under fasting conditions along with approximately 240 mL of water after a 10-hour fast. The total duration of participation including the screening period for each subject was approximately 8 weeks. There were 2 periods of approximately 14 days each; washout phase was 10 days between both doses. 60 mg of Compound I in the form of Treatment A (4×15 mg capsules) was administered to subjects at Hour 0 on Day 1 under fasting conditions along with approximately 240 mL of water after a 10-hour fast.
Plasma samples for the analysis of Compound I were collected at the following time points relative to dosing on Day 1 of each period: pre-dose and at 0.5, 1, 2, 3, 4, 5, 6, 7, 8, 10, 12, 16, 24, 36, 48, 72, 96, 120, 144, and 216 hours post-dose. Safety was evaluated by TEAEs, clinical laboratory tests, vital signs, 12 lead ECGs, and physical examinations. An analysis of variance (ANOVA) was performed on the natural log (ln)-transformed AUC0-last, AUC0-inf, and Cmax. The ANOVA model included sequence, treatment, and period as fixed effects, and subject nested within sequence as a random effect, and included calculation of least-squares means (LSMs) as well as the difference between treatment LSMs. Ratios of LSMs were calculated using the exponentiation of the difference between treatment LSMs from the analyses on the In-transformed AUC0-last, AUC0-inf, and Cmax. […] Safety was evaluated by clinical laboratory tests, physical examination, vital signs, 12 lead ECGs, and adverse events (AEs). There was no inferential statistics performed.

[2] = target: T1, EGFR_d746-750 S768I (Homo sapiens, UniProt P00533, DEL746-750/S768I); experiment: EGFR kinase activity (AQT0794 peptide, Sox fluorescence); format: biochemical; conditions: 1 mM ATP, 2.0 nM enzyme, room temperature
T1 construct: purchased SignalChem E10-122B3G
T1 sequence (P00533 with tags, fused parts or gaps DEL746-750/S768I): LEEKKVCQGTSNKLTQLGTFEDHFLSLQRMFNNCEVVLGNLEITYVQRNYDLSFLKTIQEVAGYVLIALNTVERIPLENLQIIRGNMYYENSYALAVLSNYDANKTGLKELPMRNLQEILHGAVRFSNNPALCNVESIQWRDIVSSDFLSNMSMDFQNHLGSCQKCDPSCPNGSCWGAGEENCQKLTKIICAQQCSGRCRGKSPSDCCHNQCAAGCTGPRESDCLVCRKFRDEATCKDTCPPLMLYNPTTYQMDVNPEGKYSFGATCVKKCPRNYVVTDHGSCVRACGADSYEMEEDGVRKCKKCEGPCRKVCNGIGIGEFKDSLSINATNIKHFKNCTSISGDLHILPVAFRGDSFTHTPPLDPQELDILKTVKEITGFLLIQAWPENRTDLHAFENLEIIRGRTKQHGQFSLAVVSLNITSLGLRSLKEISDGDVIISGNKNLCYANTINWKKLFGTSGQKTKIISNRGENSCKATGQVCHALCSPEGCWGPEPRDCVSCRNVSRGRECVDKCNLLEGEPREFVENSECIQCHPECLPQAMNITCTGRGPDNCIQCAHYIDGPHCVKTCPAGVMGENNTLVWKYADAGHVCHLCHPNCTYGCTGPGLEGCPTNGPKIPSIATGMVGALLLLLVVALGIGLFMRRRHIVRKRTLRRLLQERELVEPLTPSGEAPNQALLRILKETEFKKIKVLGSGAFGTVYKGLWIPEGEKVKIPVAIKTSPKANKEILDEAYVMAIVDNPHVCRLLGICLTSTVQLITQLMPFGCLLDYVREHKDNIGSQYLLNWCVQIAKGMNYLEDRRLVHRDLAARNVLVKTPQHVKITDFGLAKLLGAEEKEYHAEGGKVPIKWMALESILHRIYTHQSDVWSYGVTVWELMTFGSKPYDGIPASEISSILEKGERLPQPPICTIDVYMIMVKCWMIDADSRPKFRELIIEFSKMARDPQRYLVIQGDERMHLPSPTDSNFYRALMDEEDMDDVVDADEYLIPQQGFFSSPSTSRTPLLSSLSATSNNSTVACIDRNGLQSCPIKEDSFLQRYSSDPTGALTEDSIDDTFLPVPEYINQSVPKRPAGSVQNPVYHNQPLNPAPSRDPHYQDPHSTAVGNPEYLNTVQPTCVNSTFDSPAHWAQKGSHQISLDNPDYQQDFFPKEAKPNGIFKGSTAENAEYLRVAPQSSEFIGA
Protocol: (§1) Compound I was dissolved in DMSO to generate a 10 mM stock solution. Dosing solutions for biochemical assays were prepared by serial dilution in DMSO followed by dilution in assay buffers as described in the experimental procedures. Stock formulations were stored at −80° C. and dosing solutions were prepared for each experiment immediately prior to use.
(§2) Activity of human recombinant EGFR wildtype and mutant proteins was measured by the phosphorylation of a peptide substate via chelation-enhanced fluorescence using the sulfonamido-oxine (Sox) chromophore detection format. Compound I was solubilized in DMSO. 16-point half log titrations in 100% DMSO were carried out by a Bravo liquid handler (Agilent) in a 384-well polypropylene plate (Greiner Cat. #781201). Using the Bravo liquid handler, intermediate 1:10 dilutions in a 384-well polypropylene plate were created in assay buffer. For the enzymatic reactions, 5 μL from the intermediate compound dilution plate was transferred to a low volume 384 well, black flat-bottom polystyrene microplate (Greiner Cat. #784076). A separate plate was generated for each enzyme. Next, 5 μL of a 4× ATP/AQT0794 working solution was added to the assay plate. Finally, 10 μL of 2× enzyme was added to start the reactions. The plate was sealed with a PerkinElmer TopSeal-A Plus plate seal (Cat. #6050185) and read at excitation (360 nm) and emission (492 nm) in continuous kinetic mode every 2 minutes for 3 hours at room temperature. Reactions were performed in 50 mM HEPES, pH 7.5, 1 mM ATP, 1.0 mM DTT, 0.015% Brij-35, 0.01% BSA, 1.0 mM EGTA, 10 mM MgCl2, 10 μM EGFR peptide substrate probe from AssayQuant (Cat. #AQT0794) plus recombinant EGFR protein (Table 1). The final DMSO concentration was 2.5%.
(§3) Real-time continuous kinetic data were loaded into Dotmatics software where slopes were calculated, converted to % inhibitions and IC50s were generated using the four-parameter non-linear regression curve fit. Reactions lacking enzymes were used as 100% inhibition controls. After addition of recombinant EGFR and its substrates ATP and AQT0794, the activity of EGFR was measured by quantification of the phosphorylation of the AQT0794 peptide substate via chelation-enhanced fluorescence using the sulfonamido-oxine (Sox) chromophore detection format with diminishing signal indicative of inhibition of EGFR activity.

[3] = target: T2, EGFR WT (Homo sapiens, UniProt P00533); experiment: as above; format: biochemical; conditions: 1 mM ATP, 2.0 nM enzyme, room temperature
T2 construct: purchased ThermoFisher PV3872
T2 sequence (P00533 25-1210): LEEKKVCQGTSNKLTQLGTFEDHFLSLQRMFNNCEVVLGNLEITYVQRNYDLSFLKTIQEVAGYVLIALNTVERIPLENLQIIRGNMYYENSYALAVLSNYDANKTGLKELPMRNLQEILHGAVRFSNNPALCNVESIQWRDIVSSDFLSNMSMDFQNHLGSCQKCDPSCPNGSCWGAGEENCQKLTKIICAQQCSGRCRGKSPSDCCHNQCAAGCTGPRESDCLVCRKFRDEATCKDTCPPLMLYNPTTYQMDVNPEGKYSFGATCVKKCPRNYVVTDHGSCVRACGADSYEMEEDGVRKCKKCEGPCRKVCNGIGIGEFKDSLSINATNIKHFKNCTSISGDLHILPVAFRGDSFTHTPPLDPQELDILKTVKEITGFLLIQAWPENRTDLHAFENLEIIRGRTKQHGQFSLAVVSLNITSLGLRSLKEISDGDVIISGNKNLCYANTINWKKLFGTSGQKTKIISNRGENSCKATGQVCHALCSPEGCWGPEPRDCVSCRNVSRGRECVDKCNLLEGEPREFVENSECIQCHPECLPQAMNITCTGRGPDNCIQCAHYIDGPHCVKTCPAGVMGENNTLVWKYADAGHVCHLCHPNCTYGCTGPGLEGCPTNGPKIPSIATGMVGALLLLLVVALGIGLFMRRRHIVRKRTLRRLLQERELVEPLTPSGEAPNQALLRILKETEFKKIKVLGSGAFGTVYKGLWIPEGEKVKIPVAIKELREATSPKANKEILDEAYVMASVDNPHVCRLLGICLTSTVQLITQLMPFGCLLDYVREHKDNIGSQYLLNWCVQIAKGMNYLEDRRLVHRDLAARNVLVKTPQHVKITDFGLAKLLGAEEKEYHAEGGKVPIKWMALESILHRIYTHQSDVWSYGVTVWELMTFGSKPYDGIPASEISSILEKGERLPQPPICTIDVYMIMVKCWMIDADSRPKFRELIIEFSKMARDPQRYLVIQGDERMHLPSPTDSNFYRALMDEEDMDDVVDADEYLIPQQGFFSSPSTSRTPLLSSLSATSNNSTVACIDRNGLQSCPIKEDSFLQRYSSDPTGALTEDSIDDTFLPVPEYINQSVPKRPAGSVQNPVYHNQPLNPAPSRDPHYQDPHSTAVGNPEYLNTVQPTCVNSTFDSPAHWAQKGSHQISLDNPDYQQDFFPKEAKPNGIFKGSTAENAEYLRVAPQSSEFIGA
Protocol: as §1, §2, §3

[4] = 60 mg single oral, healthy subjects
[5] = 60 mg single oral, healthy subjects (30)
[6] = overall, 60 mg single oral, mild

C=CC(=O)Nc1cc(Nc2cc(N3OCC[C@@H]3c3cc(F)cc(F)c3)ncn2)c(OC)cc1N1CCC(N2CCN(C3CC3)CC2)CC1 [Compound I, N-[2-[4-(4-cyclopropyl-1-piperazinyl)-1-piperidinyl]-5-[[6-[(3R)-3-(3,5-difluorophenyl)-2-isoxazolidinyl]-4-pyrimidinyl]amino]-4-methoxyphenyl]-2-propenamide]
Safety and tolerability ([1]; 60 mg single oral (capsule or tablet), fasting, healthy subjects): generally safe and well tolerated | Clinical laboratory tests, vital signs, 12-lead ECG, physical examination [1, 4]: no clinically significant findings or trends | Deaths, serious adverse events (SAEs), or TEAEs leading to discontinuation [1, 4]: no deaths, serious adverse events (SAEs), or TEAEs leading to subject discontinuation | Severe TEAEs [1, 5]: No severe TEAEs were reported | Subjects reporting TEAEs [1, 5]: 47% | Subjects reporting TEAEs, number [1, 5]: 14 n | Subjects with TEAEs of maximum severity mild [1, 5]: 33% | Subjects with TEAEs of maximum severity mild, number [1, 5]: 10 n | Subjects with TEAEs of maximum severity moderate [1, 5]: 13% | Subjects with TEAEs of maximum severity moderate, number [1, 5]: 4 n | Subjects with TEAEs related to the study drug [1, 5]: 40% | Subjects with TEAEs related to the study drug, number [1, 5]: 12 n | Constipation (TEAE) [1, 6]: 10% | Constipation (TEAE), number of subjects [1, 6]: 3 n | Dry skin (TEAE) [1, 6]: 10% | Dry skin (TEAE), number of subjects [1, 6]: 3 n | Epistaxis (TEAE) [1, 6]: 10% | Epistaxis (TEAE), number of subjects [1, 6]: 3 n | Papular rash (TEAE) [1, 6]: 10% | Papular rash (TEAE), number of subjects [1, 6]: 3 n | IC50 [2]: 1 nM | IC50 [3]: 2.3 ± 1.1 nM

Reference: US20260306491A1, “EGFR INHIBITOR FOR TREATING CANCERS COMPRISING ATYPICAL EGFR MUTATIONS” (ORIC Pharmaceuticals, Inc., priority 2023, published 2026)
